Data from patent US20080274522A1, “METHOD FOR THE PRODUCTION OF 2-BUTANONE” (priority 2007, published 2008).
Read-outs that look alike come from different tables or passages of the source.

Legend:
E. coli strain MG1655 [1] = details: log-phase
Procedure: A similar study was done with log-phase cultures of E. coli grown in a defined medium. E. coli strain MG1655 was allowed to grow overnight in MOPS 0.2% glucose medium (Teknova, Half Moon Bay, Calif.) at 42° C. or 28° C. The following day, the cultures were diluted into fresh medium and allowed to grow at the same temperature until in the log phase of growth. […] To these were added 10 μL of the log phase cultures and the tubes were immediately placed in shaking incubators at 42° C. or 28° C. or left on ice for 30 min. […] Then 5 μL of the undiluted treated cultures were spotted on LB agar plates. Subsequent 10-fold serial dilutions of 10^−3, 10^−4, 10^−5 and 10^−6 of the exposed cultures were done by serial pipetting of 20 μL, starting with the 10^−2 dilution cultures, into 180 μL of LB medium in the microplate, using a multi-channel pipette. Prior to each transfer, the cultures were mixed by pipetting up and down six times. Each dilution (5 μL) was spotted onto an LB plate using a multi-channel pipette and allowed to soak into the plate. The plates were inverted and incubated overnight at 37° C. […] Survival of 0% was recorded when no colonies in the spots of the undiluted or any of the serial dilutions were observed.

E. coli strain MG1655 [2] = details: stationary phase
Procedure: For the stationary phase studies, E. coli strain MG1655 (ATCC # 700926) was grown overnight in LB medium (Teknova, Half Moon Bay, Calif.) with shaking at 250 rpm at 42° C., […] 28° C. […] To these were added 10 μL of the overnight cultures and the tubes were immediately placed in shaking incubators at 42° C. or 28° C. or left on ice for 30 min. […] Then, 5 μL of the undiluted treated cultures were spotted on LB agar plates. Subsequent 10-fold serial dilutions of 10^−3, 10^−4, 10^−5 and 10^−6 of the exposed cultures were done by serial pipetting of 20 μL, starting with the 10^−2 dilution cultures, into 180 μL of LB medium in the microplate, using a multi-channel pipette. Prior to each transfer, the cultures were mixed by pipetting up and down six times. Each dilution (5 μL) was spotted onto an LB plate using a multi-channel pipette and allowed to soak into the plate. The plates were inverted and incubated overnight at 37° C. […] Survival of 0% was recorded when no colonies in the spots of the undiluted or any of the serial dilutions were observed.

[3] = 1-butanol 1.0 % (w/v), grown at 28° C.
[4] = 1-butanol 1.0 % (w/v), grown at 42° C.
[5] = 1-butanol 1.5 % (w/v), grown at 28° C.
[6] = 1-butanol 1.5 % (w/v), grown at 42° C.
[7] = 1-butanol 2.0 % (w/v), grown at 28° C.
[8] = 1-butanol 2.0 % (w/v), grown at 42° C.
[9] = 1-butanol 3.0 % (w/v), grown at 28° C.
[10] = 1-butanol 3.0 % (w/v), grown at 29° C.
[11] = 1-butanol 3.0 % (w/v), grown at 42° C.
[12] = 1-butanol 4.0 % (w/v), grown at 28° C.
[13] = 1-butanol 4.0 % (w/v), grown at 29° C.
[14] = 1-butanol 4.0 % (w/v), grown at 42° C.
[15] = 1-butanol 5.0 % (w/v), grown at 29° C.
[16] = 1-butanol 5.0 % (w/v), grown at 42° C.
[17] = 1-butanol 6.0 % (w/v), grown at 29° C.
[18] = 1-butanol 6.0 % (w/v), grown at 42° C.
[19] = 1-butanol […] (w/v), grown at 29° C.
[20] = 1-butanol […] (w/v), grown at 42° C.
[21] = 1-butanol 1.0 % (w/v), grown at 29° C.
[22] = 1-butanol 1.5 % (w/v), grown at 29° C.
[23] = 1-butanol 2.0 % (w/v), grown at 29° C.

1-butanol
% survival after 30 min exposure at 42° C. (E. coli strain MG1655 [1]; [3]): 100% | % survival after 30 min exposure at 42° C. (E. coli strain MG1655 [1]; [4]): 100% | % survival after 30 min exposure at 28° C. (E. coli strain MG1655 [1]; [5]): 100% | % survival after 30 min exposure at 42° C. (E. coli strain MG1655 [1]; [5]): 0% | % survival after 30 min exposure at 28° C. (E. coli strain MG1655 [1]; [6]): 100% | % survival after 30 min exposure at 42° C. (E. coli strain MG1655 [1]; [6]): 0% | % survival after 30 min exposure at 28° C. (E. coli strain MG1655 [1]; [7]): 100% | % survival after 30 min exposure at 42° C. (E. coli strain MG1655 [1]; [7]): 0% | % survival after 30 min exposure at 28° C. (E. coli strain MG1655 [1]; [8]): 100% | % survival after 30 min exposure at 42° C. (E. coli strain MG1655 [1]; [8]): 0% | % survival after 30 min exposure at 28° C. (E. coli strain MG1655 [1]; [9]): 0% | % survival after 30 min exposure at 42° C. (E. coli strain MG1655 [1]; [9]): 0% | % survival after 30 min exposure at 0° C. (E. coli strain MG1655 [1]; [10]): 100% | % survival after 30 min exposure at 0° C. (E. coli strain MG1655 [1]; [11]): 100% | % survival after 30 min exposure at 28° C. (E. coli strain MG1655 [1]; [11]): 0% | % survival after 30 min exposure at 42° C. (E. coli strain MG1655 [1]; [11]): 0% | % survival after 30 min exposure at 28° C. (E. coli strain MG1655 [1]; [12]): 0% | % survival after 30 min exposure at 42° C. (E. coli strain MG1655 [1]; [12]): 0% | % survival after 30 min exposure at 0° C. (E. coli strain MG1655 [1]; [13]): 100% | % survival after 30 min exposure at 0° C. (E. coli strain MG1655 [1]; [14]): 100% | % survival after 30 min exposure at 28° C. (E. coli strain MG1655 [1]; [14]): 0.001% | % survival after 30 min exposure at 42° C. (E. coli strain MG1655 [1]; [14]): 0% | % survival after 30 min exposure at 0° C. (E. coli strain MG1655 [1]; [15]): 50% | % survival after 30 min exposure at 0° C. (E. coli strain MG1655 [1]; [16]): 10% | % survival after 30 min exposure at 0° C. (E. coli strain MG1655 [1]; [17]): 1% | % survival after 30 min exposure at 0° C. (E. coli strain MG1655 [1]; [18]): 1% | % survival after 30 min exposure at 42° C. (E. coli strain MG1655 [1]; 1-butanol […] (w/v), grown at 28° C.): 0% | % survival after 30 min exposure at 0° C. (E. coli strain MG1655 [1]; [19]): 100% | % survival after 30 min exposure at 0° C. (E. coli strain MG1655 [1]; [20]): 100% | % survival after 30 min exposure at 42° C. (E. coli strain MG1655 [1]; [20]): 0% | % survival after 30 min exposure at 28° C. (E. coli strain MG1655 [2]; [3]): 100% | % survival after 30 min exposure at 0° C. (E. coli strain MG1655 [2]; [21]): 100% | % survival after 30 min exposure at 42° C. (E. coli strain MG1655 [2]; [21]): 100% | % survival after 30 min exposure at 0° C. (E. coli strain MG1655 [2]; [4]): 100% | % survival after 30 min exposure at 28° C. (E. coli strain MG1655 [2]; [4]): 100% | % survival after 30 min exposure at 42° C. (E. coli strain MG1655 [2]; [4]): 100% | % survival after 30 min exposure at 28° C. (E. coli strain MG1655 [2]; [5]): 100% | % survival after 30 min exposure at 0° C. (E. coli strain MG1655 [2]; [22]): 100% | % survival after 30 min exposure at 42° C. (E. coli strain MG1655 [2]; [22]): 0.1% | % survival after 30 min exposure at 0° C. (E. coli strain MG1655 [2]; [6]): 100% | % survival after 30 min exposure at 28° C. (E. coli strain MG1655 [2]; [6]): 100% | % survival after 30 min exposure at 42° C. (E. coli strain MG1655 [2]; [6]): 0.1% | % survival after 30 min exposure at 28° C. (E. coli strain MG1655 [2]; [7]): 100% | % survival after 30 min exposure at 0° C. (E. coli strain MG1655 [2]; [23]): 100% | % survival after 30 min exposure at 42° C. (E. coli strain MG1655 [2]; [23]): 0.1% | % survival after 30 min exposure at 0° C. (E. coli strain MG1655 [2]; [8]): 100% | % survival after 30 min exposure at 28° C. (E. coli strain MG1655 [2]; [8]): 100% | % survival after 30 min exposure at 42° C. (E. coli strain MG1655 [2]; [8]): 0% | % survival after 30 min exposure at 28° C. (E. coli strain MG1655 [2]; [9]): 100% | % survival after 30 min exposure at 0° C. (E. coli strain MG1655 [2]; [10]): 100% | % survival after 30 min exposure at 42° C. (E. coli strain MG1655 [2]; [10]): 0% | % survival after 30 min exposure at 0° C. (E. coli strain MG1655 [2]; [11]): 100% | % survival after 30 min exposure at 28° C. (E. coli strain MG1655 [2]; [11]): 100% | % survival after 30 min exposure at 42° C. (E. coli strain MG1655 [2]; [11]): 0% | % survival after 30 min exposure at 28° C. (E. coli strain MG1655 [2]; [12]): 0.0003% | % survival after 30 min exposure at 0° C. (E. coli strain MG1655 [2]; [13]): 100% | % survival after 30 min exposure at 42° C. (E. coli strain MG1655 [2]; [13]): 0% | % survival after 30 min exposure at 0° C. (E. coli strain MG1655 [2]; [14]): 100% | % survival after 30 min exposure at 28° C. (E. coli strain MG1655 [2]; [14]): 0.0004% | % survival after 30 min exposure at 42° C. (E. coli strain MG1655 [2]; [14]): 0% | % survival after 30 min exposure at 0° C. (E. coli strain MG1655 [2]; [15]): 1% | % survival after 30 min exposure at 0° C. (E. coli strain MG1655 [2]; [16]): 1% | % survival after 30 min exposure at 0° C. (E. coli strain MG1655 [2]; [17]): 0.001% | % survival after 30 min exposure at 0° C. (E. coli strain MG1655 [2]; [18]): 0% | % survival after 30 min exposure at 0° C. (E. coli strain MG1655 [2]; 1-butanol 7.0 % (w/v), grown at 29° C.): 0% | % survival after 30 min exposure at 0° C. (E. coli strain MG1655 [2]; 1-butanol 7.0 % (w/v), grown at 42° C.): 0% | % survival after 30 min exposure at 0° C. (E. coli strain MG1655 [2]; [19]): 100% | % survival after 30 min exposure at 42° C. (E. coli strain MG1655 [2]; [19]): 0% | % survival after 30 min exposure at 0° C. (E. coli strain MG1655 [2]; [20]): 100% | % survival after 30 min exposure at 42° C. (E. coli strain MG1655 [2]; [20]): 0%
